Laboratory results taken from publication PMC11096368, “Transcriptomic signature, bioactivity and safety of a non-hepatotoxic analgesic generating AM404 in the midbrain PAG region” (Scientific Reports, 2024).

Key:
[1] = system: Sprague–Dawley rats; assay: 5-day repeat-dose oral toxicity and toxicokinetic study (non-GLP); type: in vivo
Description: As part of a two-phase study, repeat-dose toxicity and toxicokinetics of SRP-001, when administered via oral gavage once daily to Sprague–Dawley rats for 5 d, was done (Calvert Labs/Altasciences, Scott Township, PA USA). The doses selected for Phase II were based on the results of Phase I. SRP-001 was administered to 20 naïve rats (5/group in Groups 5–8) once daily for 5 days via oral gavage for toxicology evaluation and once to 18 naïve rats (6/group in Groups 9–11) for toxicokinetic evaluation.
Mortality/morbidity was performed twice daily and once prior to sacrifice. Clinical observations were evaluated prior to each dose administration and approximately 1–3 h post-dose for animals in Groups 5–8. Body weights were recorded prior to randomization/selection, prior to dose administration on day 1 for animals in Groups 5–11, and prior to dose administration on day 5 for Groups 5–8. Food consumption was recorded for animals from Groups 5–8 on day 5. Blood for evaluation of hematology, coagulation and clinical chemistry and urine for urinalysis was collected from animals in Groups 5–8 on day 6. All animals in Groups 5–8 were sacrificed on […]. Selected tissues were harvested at necropsy, selected organs weighed, and selected tissues preserved. Blood for toxicokinetic evaluation was collected from animals in Groups 9–11 at selected timepoints on day 1 to ensure comprehensive data capture. These timepoints include 0 h (pre-dose) and post-dose intervals of 1, 2, 4, 8, and 24 h on both Day 1 and […] of the study. This schedule allows for a robust assessment of SRP-001's pharmacokinetic profile, including absorption, distribution, metabolism, and excretion and is in line with current FDA-guidelines for GLP studies.
Clinical signs included soft feces, brown staining of the anogenital area, and a few instances of red staining of the muzzle. […] Half-lives were 6.19 and 6.86 h at mid and high doses, respectively. […] Based on these observations, SRP-001 was considered to be tolerated at 1200 mg/kg when administered once daily for 5 consecutive days.

[2] = system: beagle dogs; assay: Two-day oral dose toxicity and pharmacokinetic study (non-GLP); type: in vivo
Description: SRP-001 was supplied by Olon Ricerca Bioscience as an off-white powder and then prepared as dosing suspensions for oral administration via gavage (Calvert Labs/Altasciences, Scott Township, PA USA). Six experimentally non-naïve male Beagle dogs (3/dose), at least 7 months old and weighing 7.2 to 10.2 kg prior to treatment initiation, were administered 100 or 900 mg/kg/d SRP-001. Animals were dosed three times daily (3–5 h between doses) for 2 d. Mortality/morbidity was performed twice daily. On the day of dosing, animals were observed prior to each dose administration and approximately 1–3 h after each dose. Animals were also observed once on day 3. Body weights were recorded for all animals prior to the first dose administration on days 1 and 3, and food consumption was recorded daily. Blood for bioanalytical evaluation was collected at selected timepoints on day 1. Following the completion of the study, surviving animals were not euthanized and were returned to the Calvert colony. […]
Following a single administration of 900 mg SRP-001 oral suspension in the fed state, plasma concentrations of SRP-001 were observed from the first sampling time-point of 1 h post-dose for all subjects. […] In a two-day oral dose toxicity and pharmacokinetic (PK) study of […] in Beagle dogs, peak plasma concentrations of SRP-001 were detected within a 30-min to 1-h window post-administration. […]

CCN(CC)C(=O)c1ccccc1S(=O)(=O)NCC(=O)Nc1ccc(O)cc1 [SRP-001, N,N-diethyl-2-[[2-(4-hydroxyanilino)-2-oxo-ethyl]sulfamoyl]benzamide]
AUC and Cmax levels versus dose ([1]; day 1): increased in a dose-dependent manner
Dose considered to be tolerated ([1]; once daily for 5 consecutive days): 1200 mg/kg
Liver weights and cholesterol levels ([1]; once daily for 5 days): Test article-related increases
Dose tolerated ([2]; 3 times daily for 2 days): 900 mg/kg/day
Time of peak plasma concentrations post-administration ([2]; dog, in vivo): 30-min to 1-h
